Consider 14 compounds from ChEMBL document CHEMBL4411258, “Novel natural compounds from endophytic fungi with anticancer activity” (Eur J Med Chem, 2018).

pEC50, pIC50: −log10 of the molar value. In brackets after ≈: the same amount, converted by molar mass. Positions of bridges follow the written chain, without caps; N, C: chain ends. Residues, ends and D or L forms follow the SMILES beside them.

Assay [1] concerns SW480. Description: Cytotoxicity against human SW480 cells after 48 hrs by MTT assay. It is filed as functional, cell-based. Conditions: SW480, 48 h. (In general: Formazan colour is commonly taken as a measure of viable cells.)
Assay [2] deals with SMMC-7721. Description: Cytotoxicity against human SMMC7721 cells after 48 hrs by MTT assay. It is filed as functional, cell-based. Conditions: Homo sapiens, SMMC-7721, 48 h; read-out: IC50.
Assay [3] has as its system MCF7. Put plainly: Cytotoxicity against human MCF7 cells after 48 hrs by MTS assay. Type of assay: functional, cell-based. Conditions: MCF7, 48 h.
The test system of another assay is RPMI-8226. Put plainly: Cytotoxicity against human RPMI8226 cells after 48 hrs by MTT assay. It is filed as functional, cell-based. Conditions: RPMI-8226, 48 h.
Assay [4] concerns A549. Description: Cytotoxicity against human A549 cells after 48 hrs by MTT assay. Type of assay: functional, cell-based. Conditions: Homo sapiens, A549, 48 h; read-out: IC50.
Assay [5] has as its system HL-60. Description: Cytotoxicity against human HL60 cells after 48 hrs by MTT assay. It is filed as functional, cell-based. Conditions: HL-60, 48 h.
In assay [6] the test system is A549. Put plainly: Cytotoxicity against human A549 cells by MTT assay. Type of assay: functional, cell-based.
The test system of another assay is MOLT-3. Description: Cytotoxicity against human MOLT3 cells by XTT assay. Type of assay: functional, cell-based.
In the next assay the test system is HuCC-A1. Description: Cytotoxicity against human HuCCa1 cells by MTT assay. Type of assay: functional, cell-based.
The target in a further assay is DNA topoisomerase I (Bos taurus, UniProt F1MN93). Description: Inhibition of calf thymus DNA topoisomerase 1 assessed as decrease in relaxation of supercoiled pBR322 DNA after 30 mins by Genview nucleic acid staining based agarose gel electrophoresis.
Sequence of DNA topoisomerase I (F1MN93 whole entry): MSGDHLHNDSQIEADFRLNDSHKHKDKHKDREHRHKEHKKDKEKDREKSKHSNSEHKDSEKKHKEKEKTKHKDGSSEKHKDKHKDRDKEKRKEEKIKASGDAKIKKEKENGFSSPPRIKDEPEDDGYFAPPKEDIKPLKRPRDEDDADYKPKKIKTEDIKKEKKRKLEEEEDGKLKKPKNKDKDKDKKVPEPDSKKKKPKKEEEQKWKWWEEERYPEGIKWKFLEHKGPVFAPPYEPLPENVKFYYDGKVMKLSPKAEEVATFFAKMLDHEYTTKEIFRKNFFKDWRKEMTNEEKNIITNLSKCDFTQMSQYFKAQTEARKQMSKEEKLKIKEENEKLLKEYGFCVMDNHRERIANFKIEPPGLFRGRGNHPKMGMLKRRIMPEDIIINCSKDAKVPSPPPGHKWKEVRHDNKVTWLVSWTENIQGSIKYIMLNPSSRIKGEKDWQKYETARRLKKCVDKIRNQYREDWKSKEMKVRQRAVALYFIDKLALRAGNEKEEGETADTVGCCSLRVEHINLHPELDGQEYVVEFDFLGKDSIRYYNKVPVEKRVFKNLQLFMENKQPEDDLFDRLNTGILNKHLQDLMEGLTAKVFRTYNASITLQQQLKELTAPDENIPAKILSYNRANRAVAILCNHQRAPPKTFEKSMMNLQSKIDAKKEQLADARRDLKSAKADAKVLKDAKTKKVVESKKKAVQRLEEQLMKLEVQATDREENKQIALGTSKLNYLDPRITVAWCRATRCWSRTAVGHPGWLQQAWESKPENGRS
The test system of assay [7] is MCF7. Put plainly: Cytotoxicity against human MCF7 cells after 24 hrs by MTT assay. Conditions: MCF7, 24 h. It is filed as functional, cell-based.
Assay [8] relates to HepG2. Put plainly: Cytotoxicity against human HepG2 cells after 24 hrs by MTT assay. It is filed as functional, cell-based. Conditions: HepG2, 24 h.
In assay [9] the test system is A549. Put plainly: Cytotoxicity against human A549 cells after 24 hrs by MTT assay. It is filed as functional, cell-based. Conditions: A549, 24 h.
The subject of the next assay is THP-1. Put plainly: Cytotoxicity against human THP1 cells by MTS assay. It is filed as functional, cell-based.
A further assay concerns HCT-116. Description: Cytotoxicity against human HCT116 cells by MTS assay. It is filed as functional, cell-based.
For assay [10], the system named is A549. Put plainly: Cytotoxicity against human A549 cells by MTS assay. It is filed as functional, cell-based.
In assay [11] the test system is HepG2. Put plainly: Cytotoxicity against human HepG2 cells by MTS assay. Type of assay: functional, cell-based.
In assay [12] the test system is MDA-MB-231. Put plainly: Cytotoxicity against human MDA-MB-231 cells by MTS assay. It is filed as functional, cell-based.
The next assay has as its system A2780S. Description: Cytotoxicity against human A2780S cells after 72 hrs by CyQuant dye-based assay. It is filed as functional, cell-based.
The subject of assay [13] is A2780cisR. Put plainly: Cytotoxicity against human A2780cisR cells after 72 hrs by CyQuant dye-based assay. Type of assay: functional, cell-based.
For assay [14], the system named is HeLa. Description: Cytotoxicity against human HeLa cells after 48 hrs by MTS assay. Type of assay: functional, cell-based.
The test system of assay [15] is A549. Description: Cytotoxicity against human A549 cells after 48 hrs by MTS assay. Type of assay: functional, cell-based. Conditions: A549, 48 h.
The next assay concerns T-24. Description: Cytotoxicity against human T24 cells after 48 hrs by MTS assay. Type of assay: functional, cell-based. Conditions: T-24, 48 h.
Assay [16] relates to A2780cisR. Put plainly: Cytotoxicity against human A2780cisR cells after 72 hrs by MTT assay. It is filed as functional, cell-based.
Assay [17] concerns A2780. Description: Cytotoxicity against human A2780 cells after 72 hrs by MTT assay. Type of assay: functional, cell-based. Conditions: A2780, 72 h.
The subject of assay [18] is A2780. Put plainly: Cytotoxicity against human cisplatin-sensitive A2780 cells by MTT assay. It is filed as functional, cell-based.
A further assay concerns L5178Y. Description: Cytotoxicity against mouse L5178Y cells by MTT assay. Type of assay: functional, cell-based.
Assay [19] relates to MDA-MB-231. Put plainly: Cytotoxicity against human MDA-MB-231 cells by MTT assay. Type of assay: functional, cell-based.
Assay [20] deals with HepG2. Description: Cytotoxicity against human HepG2 cells by MTT assay. Type of assay: functional, cell-based.
For a further assay, the system named is Caco-2. Put plainly: Cytotoxicity against human Caco2 cells after 72 hrs by MTT assay. Conditions: Caco-2, 72 h. It is filed as functional, cell-based.
In assay [21] the test system is MCF7. Description: Cytotoxicity against human MCF7 cells after 72 hrs by MTT assay. Type of assay: functional, cell-based. Conditions: MCF7, 72 h.
Assay [22] relates to MDA-MB-231. Put plainly: Cytotoxicity against human MDA-MB-231 cells after 72 hrs by MTT assay. It is filed as functional, cell-based. Conditions: MDA-MB-231, 72 h.
The next assay deals with Bel-7402. Put plainly: Cytotoxicity against human Bel7402 cells after 48 hrs by MTT assay. It is filed as functional, cell-based. Conditions: Bel-7402, 48 h.
Assay [23] concerns HeLa. Put plainly: Cytotoxicity against human HeLa cells after 48 hrs by MTT assay. Type of assay: functional, cell-based.
Assay [24] concerns SW480. Description: Cytotoxicity against human SW480 cells by MTT assay. It is filed as functional, cell-based.
Assay [25] has as its system MCF7. Description: Cytotoxicity against human MCF7 cells assessed as inhibition of cell growth at 40 uM by MTS assay. Type of assay: functional. Conditions: read-out: GI.
In assay [26] the test system is SMMC-7721. Put plainly: Cytotoxicity against human SMMC7721 cells assessed as inhibition of cell growth at 40 uM by MTS assay. It is filed as functional. Conditions: read-out: GI.
Assay [27] concerns SW480. Put plainly: Cytotoxicity against human SW480 cells assessed as inhibition of cell growth at 40 uM by MTS assay. It is filed as functional. Conditions: read-out: GI.
Assay [28] has as its system A549. Put plainly: Cytotoxicity against human A549 cells assessed as inhibition of cell growth at 40 uM by MTS assay. Type of assay: functional. Conditions: read-out: GI.
Assay [29] has as its system HL-60. Description: Cytotoxicity against human HL60 cells assessed as inhibition of cell growth at 40 uM by MTS assay. It is filed as functional. Conditions: read-out: GI.

Take `COC(=O)C1=C[C@@H](C)C[C@H]2CC[C@@H](O)[C@@]12O`: the negative logarithm of the IC50 (pIC50) with SW480 [1], with SMMC-7721 [2], with MCF7 [3], in the assay with RPMI-8226, with A549 [4] and with HL-60 [5] was 4.79 to 5.44 in each case.
As to `COCC1=C2C=C(C)OC=C2[C@H](O)[C@@](C)(O)C1=O`, the figures for the IC50 in the assay with A549 [6], with MOLT-3 and in the assay with HuCC-A1 were 46.5 mg/L (≈ 184 µM), 17.4 mg/L (≈ 69 µM) and 48.1 mg/L (≈ 191 µM), respectively.
Take `Cc1cc(O)c2c(c1)[C@H](O)[C@H]1C=C[C@H](O)[C@@H](O)[C@@H]1C2=O`: at DNA topoisomerase I, the pIC50 is 4.64.
For `CC[C@H](C)[C@@H]1NC(=O)[C@@H]2CSSC[C@H](NC(=O)[C@H](CC(C)C)NC(=O)[C@H](C(C)C)NC1=O)C(=O)N2` (cyclo(CCIVL); disulfide 1-2), the pIC50 is 6.19 in the assay on MCF7 [7], 4.44 with HepG2 [8] and 5.62 with A549 [9].
On to `CCOC(=O)c1c(O)cc(O)cc1CCCCCCCC(C)O` (stereo unspecified), for which the negative logarithm of the IC50 (pIC50) in the assay with THP-1 was 4.40; with HCT-116 it was 4.92; in the assay on A549 [10], 4.88; with HepG2 [11], 4.90; in the assay with MDA-MB-231 [12] it was 4.99.
Consider `CCCCC/C=C/C1=C(CO)C(=O)[C@H]2O[C@@]2(C/C=C(\C)C(=O)O)C1=O`, for which the pIC50 was 5.48 in the assay on A2780S and 5.29 in the assay with A2780cisR [13].
Turning to `COC(=O)c1cc(OC)cc(O)c1C(=O)c1c(O)cc(C)c2c1O[C@@](C)(CC(=O)[C@@]13C[C@H](O)[C@@H]4O[C@]4(CC=C(C)C)[C@@H]1O3)C2`, the pIC50 was 4.35 in the assay with HeLa [14], 4.45 with A549 [15], 4.41 with T-24 and 4.42 in the assay on MCF7 [3].
On to `O=C1N2[C@H]3C(=CC=C[C@@H]3O)C[C@]23SS[C@]12C[C@H]1[C@@H]([C@@H](O)C=C[C@@H]1O)N2C3=O`, for which the pIC50 in the assay on A2780cisR [16] and in the assay with A2780 [17] was 6.18 in each case.
Turning to `C=C1[C@@H](C)[C@H]2[C@H](Cc3ccc(O)cc3)NC(=O)[C@]23[C@H](O)/C=C/[C@@H](C)C[C@@H](C)C/C=C/[C@H]3[C@@H]1O`, the pIC50 in the assay on A2780 [18] is 5.16; in the assay with L5178Y it was 5.59.
In the case of `COc1ccc2c(c1)N(CC=C(C)C)C(=O)[C@@]21C=C2C(=O)N3CCC[C@H]3C(=O)N2[C@H]1C=C(C)C`, the pIC50 in the assay with MDA-MB-231 [19] is 4.45; with HepG2 [20] it was 4.85.
Consider `OCC(O)C(O)C(O)C(O)C(O)O[C@H]1[C@H](O)[C@@H](O)[C@H](O)O[C@@H]1CO` (stereo partly specified), for which the pEC50 is 4.00 in the assay with Caco-2, 4.01 in the assay on MCF7 [21] and 4.03 with MDA-MB-231 [22].
On to `COC(=O)[C@]1(OC)CCC(=O)N1Nc1ccc(OC)cc1OC`, for which the pIC50 in the assay on Bel-7402 was 5.09; in the assay on HeLa [23], 4.81.
On to `CC1=C(C=O)[C@@]2(C)CCCC(C)(C)[C@@H]2C[C@@H]1O`, for which the pIC50 with SW480 [24] was 5.06.
Turning to `C=C1[C@@H](C)[C@H]2[C@H](Cc3c[nH]c4ccccc34)NC(=O)[C@@]2(C(=O)CCC(=O)OC)[C@@H](/C=C/CC(C)/C=C(\C)C=O)[C@@H]1O` (stereo partly specified), the inhibition of growth at 40 µM came to 58% in the assay on MCF7 [25]; 51% in the assay with SMMC-7721 [26]; 61% with SW480 [27]; 67% in the assay with A549 [28]; 96% with HL-60 [29].

By pIC50 is commonly meant −log10 of the IC50, conventionally taken in molar units. As a reminder, the IC50 is the midpoint of a concentration-inhibition curve. A low value points to higher potency. As usually defined, the pEC50 is −log10 of the EC50, conventionally taken in molar units.
